Measurements from paper PMC10820468, “Novel Dihydrocoumarins Induced by Radiolysis as Potent Tyrosinase Inhibitors” (Molecules, 2024).

Assays:
mushroom tyrosinase [1] = assay: Mushroom tyrosinase inhibition assay (L-DOPA substrate, DOPA chrome at 470 nm); assay type: biochemical; settings: 37 °C, 30 min, pH 6.8, triplicate
Method: The tyrosinase inhibition assay was achieved according to a previously described method. Both the enzyme (tyrosinase, EC 1.14.18.1) and substrate (L-3,4-dihydroxyphenylalanine) (L-DOPA) were purchased from Sigma-Aldrich. All test compounds were first dissolved in 5% dimethyl sulfoxide (DMSO) (80 μL), and the tyrosinase inhibitory activity was evaluated at various concentrations (5 to 200 μM). The reaction mixture consisted of 40 μL of tyrosinase solution (125 unit/mL in 67 mM phosphate buffer, pH 6.8), 40 μL of L-DOPA (25 mM in 67 mM phosphate buffer, pH 6.8), and 80 μL of the test sample. After incubation at 37 °C for 30 min, the amount of released DOPA chrome was measured at 470 nm using an ELISA reader (Infinite F200, Tecan Austria GmBH, Grodig, Austria). The tyrosinase inhibition (%) was calculated, and the half-maximal inhibitory concentration (IC50) was evaluated using linear regression analysis of the inhibitory effects under the assay conditions. […] All assays were carried out in triplicate. Kinetic parameters were determined using the Lineweaver-Burk plots methods at increasing concentration of substrates and inhibitor. The data was calculated using Sigma-plot (SPCC Inc., Chicago, IL, USA).

mushroom tyrosinase [2] = assay: Inhibition kinetics of tyrosinase-mediated L-DOPA oxidation (Lineweaver-Burk plots); assay type: biochemical
Text: Tyrosinase is a metalloenzyme that plays a primary role in the production of melanin from tyrosine when the skin is exposed to UV rays. Tyrosinase-related protein-1 (TRP-1) and dopachrome tautomerase (TRP-2) result in the formation of melanin as eumelanin (which appears black and brown) and pheomelanin (which appears yellow and red). Tyrosinase is present in epidermal melanocytes as well as in the pigment epithelia of the retina, iris, and ciliary body of the eye, and is one of the chief enzymes responsible for skin pigmentation in mammals. Melanin production can be inhibited by suppressing tyrosinase activity, thereby preventing the induction of melasma, freckles, and senile […]. […] Radiocatalytic hydrogenated molecules 1–4 obtained in the present study were evaluated for their inhibitory capacities toward mushroom tyrosinase. […]
The tyrosinase inhibition assay was achieved according to a previously described method. […] All test compounds were first dissolved in 5% dimethyl sulfoxide (DMSO) (80 μL), and the tyrosinase inhibitory activity was evaluated at various concentrations (5 to 200 μM). […] After incubation at 37 °C for 30 min, the amount of released DOPA chrome was measured at 470 nm using an ELISA reader (Infinite F200, Tecan Austria GmBH, Grodig, Austria). […] The data was calculated using Sigma-plot (SPCC Inc., Chicago, IL, USA).

| IC50 (mushroom tyrosinase [1]) | Inhibition Type (mushroom tyrosinase [2]) | Ki (mushroom tyrosinase [2]) | SMILES |
| --- | --- | --- | --- |
| 254.6 ± 2.1 µM | – | – | O=C1Oc2cc(O)ccc2[C@@](CO)(CCO)[C@@H]1CO (relative stereo) [Compound 3, Radiocoumarone C] |
| 19.8 ± 0.5 µM | Non-competitive | 16 µM | C[C@]1([C@@]2(C)c3ccc(O)cc3OC(=O)[C@H]2CO)c2ccc(O)cc2OC(=O)[C@H]1CO (relative stereo) [Compound 4, Radiocoumarone D] |

Continued, molecule first:

| SMILES | IC50 (mushroom tyrosinase [1]) | Inhibition Type (mushroom tyrosinase [2]) | Ki (mushroom tyrosinase [2]) |
| --- | --- | --- | --- |
| Cc1cc(=O)oc2cc(O)ccc12 [4-MUF (5), 4-methylumbelliferone, reference compound] | > 500 µM | – | – |
| C[C@@]1(CO)CC(=O)Oc2cc(O)ccc21 (stereo in doubt) [Compound 1, Radiocoumarone A] | 143 ± 1.5 µM | – | – |
| C[C@]1(CO)c2ccc(O)cc2OC(=O)[C@H]1CO (relative stereo) [Compound 2, Radiocoumarone B] | 49 ± 1.3 µM | – | – |
